Publication PMC9079959, “Substituted spirooxindole derivatives as potent anticancer agents through inhibition of phosphodiesterase 1” (RSC Advances, 2018)
Where two headings read alike, the source gives them in different places.

Key:
HCT-116 cells = test: MTT cytotoxicity assay, colorectal cancer cell line HCT-116; assay type: cell-based; settings: for SI (selectivity index): IC50 normal (VERO-B) / IC50 cancer (HCT-116)
Protocol: (§1) The cytotoxic activity of the compounds was tested against different mammalian cancer cells, prostate carcinoma cells (PC-3), hepatocellular carcinoma (HepG2) and colon cancer cells (HCT-116). African green monkey kidney cells (Vero-B) were used as normal cells to study the selectivity towards the cancer cells. The cell lines were obtained from the American Type Culture Collection (ATCC). The cells were cultivated at 37 °C and 10% CO2 in DMEM (Lonza, Germany) medium supplemented with 10% fetal bovine serum (Lonza, Germany), 100 IU ml^−1 penicillin and 100 μg ml^−1 streptomycin (Lonza, Germany). […] The spirooxindole derivatives were solubilized in DMSO and stored at −20 °C. The viability of the cells was quantified using 3-(4,5-dimethylthiazol-2-yl)-2,5-diphenyl tetrazolium bromide (MTT), which measures the activity of mitochondrial succinate dehydrogenase in viable cells.[45,46]
(§2) The cells were seeded in 96-well plates at a concentration of 5 × 10^4 cells per ml (100 μl per well). […] DMSO was used as a negative control (0.1%). The cells were incubated for 48 h. After that, 15 μl of MTT (5 mg ml^−1 in PBS) was added to each well and incubated for another 4 h. The formazan crystals were solubilized by 100 μl of acidified SDS solution (10% SDS/0.01 N HCl in PBS). The absorbance was measured after 14 h of incubation at 37 °C and under 5% CO2 at 570 nm by using a BioTek microplate reader. Each experiment was repeated 3 times and a standard deviation was calculated (SD±). […] The growth of the cells was monitored and the images were acquired by Gx microscopes (GXMGXD202 Inverted Microscope) at 10× magnification.

Vero-B cells = test: MTT cytotoxicity assay, normal cells Vero-B; assay type: cell-based, African green monkey; settings: 48 h
Protocol: as §1, §2

PC-3 cells = test: MTT cytotoxicity assay, prostate cancer cell line PC-3; assay type: cell-based; settings: for SI (selectivity index): IC50 normal (VERO-B) / IC50 cancer (PC-3)
Protocol: as §1, §2

HepG2 cells = test: MTT cytotoxicity assay, hepatocellular carcinoma HepG2; assay type: cell-based; settings: for IC50: Homo sapiens, HepG2; for SI (selectivity index): IC50 normal (VERO-B) / IC50 cancer (HepG2)
Protocol: as §1, §2

phosphodiesterase 1 = assay type: biochemical, snake; settings: positive control
Protocol: A phosphodiesterase I inhibition assay was performed using snake venom according to a previously reported method with minute variations. Briefly, 33 mM Tris–HCl buffer of pH 8.8 (97 μl), 30 mM magnesium acetate with an enzyme concentration of 0.000742 U well^−1 and 0.33 mM bis-(p-nitrophenyl) phosphate (Sigma N-3002, 60 μl) as substrate were taken. […] After a pre-incubation period of 30 min, the enzyme with the test samples was observed spectrophotometrically for enzyme activity on a microtiter plate reader at 37 °C by following the rate of change in OD min^−1 at 410 nm of the p-nitrophenol released from p-nitrophenyl phosphate. All assays were processed in triplicate.[47]

[1] = Homo sapiens, HCT-116, MTT, 48 h, ± SD of 3 experiments, read-out: HCT-116 (IC50)
[2] = Homo sapiens, HCT-116, MTT, 48 h, read-out: HCT-116 (IC50, μg ml^−1)
[3] = Homo sapiens, PC-3, MTT, 48 h, ± SD of 3 experiments, read-out: PC-3 (IC50)
[4] = Homo sapiens, PC-3, MTT, 48 h, read-out: PC-3 (IC50, μg ml^−1)
[5] = MTT, 48 h, ± SD of 3 experiments, read-out: HepG2 (IC50)
[6] = MTT, 48 h, read-out: HepG2 (IC50, μg ml^−1)

Structure (SMILES)	IC50 (HCT-116 cells; [1]) [µM]	IC50 (HCT-116 cells; [2]) [µg/mL]	SI (selectivity index) (HCT-116 cells)	melting point [°C]	IC50 (Vero-B cells; Chlorocebus sabaeus, Vero B) [µM]	IC50 (PC-3 cells; [3]) [µM]	IC50 (PC-3 cells; [4]) [µg/mL]	SI (selectivity index) (PC-3 cells)	IC50 (HepG2 cells; [5]) [µM]	IC50 (HepG2 cells; [6]) [µg/mL]	SI (selectivity index) (HepG2 cells)	HCT-116 (IC50, μg ml^−1) (HCT-116 cells; MTT, 48 h) [µg/mL]	IC50 (HCT-116 cells; MTT, 48 h, ± SD of 3 experiments, read-out: HCT-116 (IC50)) [µM]	IC50 (Vero-B cells) [µM]	PC-3 (IC50, μg ml^−1) (PC-3 cells; MTT, 48 h) [µg/mL]	IC50 (PC-3 cells; MTT, 48 h, ± SD of 3 experiments, read-out: PC-3 (IC50)) [µM]	HepG2 (IC50, μg ml^−1) (HepG2 cells; MTT, 48 h) [µg/mL]	IC50 (phosphodiesterase 1) [µM]
O=C(c1c[nH]c2ccccc12)[C@@H]1C(c2ccc(F)cc2)[C@@H]2CCCN2[C@@]12C(=O)Nc1ccccc12 (stereo partly drawn) [4g, (2′R,3S,7a′S)-1′-(4-Fluorophenyl)-2′-(1H-indole-3-carbonyl)-1′,2′,5′,6′,7′,7a′-hexahydrospiro[indoline-3,3′-pyrrolizin]-2-one]	16 ± 1	7.4	2.5	144 to 146	40	16.3 ± 30	7.6	2.5	20 ± 2	9.3	2	–	–	–	–	–	–	–
O=C(c1c[nH]c2ccccc12)[C@@H]1C(c2cccc(F)c2)[C@@H]2CCCN2[C@@]12C(=O)Nc1ccccc12 (stereo partly drawn) [4h, (2′R,3S,7a′S)-1′-(3-Fluorophenyl)-2′-(1H-indole-3-carbonyl)-1′,2′,5′,6′,7′,7a′-hexahydrospiro[indoline-3,3′-pyrrolizin]-2-one]	15 ± 1.4	7	1.2	149 to 151	18	11.5 ± 11.5	5.4	1.6	14 ± 0.22	6.5	1.3	–	–	–	–	–	–	–
COc1ccc(C2[C@@H](C(=O)c3c[nH]c4ccccc34)[C@]3(C(=O)Nc4ccccc43)N3CCC[C@@H]23)cc1 (stereo partly drawn) [4e, (2′R,3S,7a′S)-2′-(1H-Indole-3-carbonyl)-1′-(4-methoxyphenyl)-1′,2′,5′,6′,7′,7a′-hexahydrospiro[indoline-3,3′-pyrrolizin]-2-one]	26 ± 2	12.4	1	122 to 124	26	15.5 ± 2	7.4	1.7	17.3 ± 3	8.3	1.5	–	–	–	–	–	–	–
N.N.[Cl][Pt][Cl] [Cisplatin, cis-diamineplatinum(II) dichloride, reference compound]	–	–	–	–	–	–	–	–	–	–	–	3.8	12.6 ± 0.4	5	1.5	5 ± 0.45	1.7	–
O=C(c1c[nH]c2ccccc12)[C@@H]1C(c2ccco2)[C@@H]2CCCN2[C@@]12C(=O)Nc1ccccc12 (stereo partly drawn) [4m, (2′R,3S,7a′S)-1′-(Furan-2-yl)-2′-(1H-indole-3-carbonyl)-1′,2′,5′,6′,7′,7a′-hexahydrospiro[indoline-3,3′-pyrrolizin]-2-one]	29 ± 2	12.7	1.7	172 to 174	50	26 ± 1.7	11.3	1.9	40 ± 5	17.5	1.3	–	–	–	–	–	–	–
O=C(O)CN(CCN(CC(=O)O)CC(=O)O)CC(=O)O [EDTA, reference compound]	–	–	–	–	–	–	–	–	–	–	–	–	–	–	–	–	–	274 ± 0.007
O=C(c1c[nH]c2ccccc12)[C@@H]1C(c2cccs2)[C@@H]2CCCN2[C@@]12C(=O)Nc1ccccc12 (stereo partly drawn) [4l, (2′R,3S,7a′S)-2′-(1H-Indole-3-carbonyl)-1′-(thiophen-2-yl)-1′,2′,5′,6′,7′,7a′-hexahydrospiro[indoline-3,3′-pyrrolizin]-2-one]	50 ± 3.5	22.7	1.2	157 to 159	60	29 ± 3	13	2.1	50 ± 3	22.7	1.2	–	–	–	–	–	–	–
O=C(c1c[nH]c2ccccc12)[C@@H]1C(c2ccc(Br)cc2)[C@@H]2CCCN2[C@@]12C(=O)Nc1ccccc12 (stereo partly drawn) [4f, (2′R,3S,7a′S)-1′-(4-Bromophenyl)-2′-(1H-indole-3-carbonyl)-1′,2′,5′,6′,7′,7a′-hexahydrospiro[indoline-3,3′-pyrrolizin]-2-one]	21 ± 1.3	11	1.4	101 to 102	30	16.3 ± 2.5	8.6	1.8	12 ± 1.5	6.3	2.5	–	–	–	–	–	–	–
O=C(c1c[nH]c2ccccc12)[C@@H]1C(c2ccc(Cl)cc2)[C@@H]2CCCN2[C@@]12C(=O)Nc1ccccc12 (stereo partly drawn) [4c, (2′R,3S,7a′S)-1′-(4-Chlorophenyl)-2′-(1H-indole-3-carbonyl)-1′,2′,5′,6′,7′,7a′-hexahydrospiro[indoline-3,3′-pyrrolizin]-2-one]	20 ± 1.5	9.6	1.1	165 to 167	22	11.8 ± 1.3	5.7	1.9	8 ± 0.5	3.8	2.8	–	–	–	–	–	–	–
Cc1cccc(C2[C@@H](C(=O)c3c[nH]c4ccccc34)[C@]3(C(=O)Nc4ccccc43)N3CCC[C@@H]23)c1 (stereo partly drawn) [4i, (2′R,3S,7a′S)-2′-(1H-Indole-3-carbonyl)-1′-(m-tolyl)-1′,2′,5′,6′,7′,7a′-hexahydrospiro[indoline-3,3′-pyrrolizin]-2-one]	7 ± 0.2	3.2	2.1	141 to 143	15	7 ± 0.6	3.2	–	7 ± 0.4	3.2	2.1	–	–	–	–	–	–	–
O=C(c1c[nH]c2ccccc12)[C@@H]1[C@@H](c2ccc(C(F)(F)F)cc2)[C@@H]2CCCN2[C@]12C(=O)Nc1ccccc12 [4k]	9 ± 0.5	4.6	2.4	153 to 155	22	9 ± 0.2	4.6	–	10 ± 1.25	5.2	2.2	–	–	–	–	–	–	–
COc1cc(C2[C@@H](C(=O)c3c[nH]c4ccccc34)[C@]3(C(=O)Nc4ccccc43)N3CCC[C@@H]23)cc(OC)c1OC (stereo partly drawn) [4n, (2′R,3S,7a′S)-2′-(1H-Indole-3-carbonyl)-1′-(3,4,5-trimethoxyphenyl)-1′,2′,5′,6′,7′,7a′-hexahydrospiro[indoline-3,3′-pyrrolizin]-2-one]	20 ± 1.25	11.1	2	179 to 181	40	17 ± 2	9.4	2.4	28 ± 2	15.7	1.4	–	–	–	–	–	–	–
O=C(c1c[nH]c2ccccc12)[C@@H]1C(c2cccc(Br)c2)[C@@H]2CCCN2[C@@]12C(=O)Nc1ccccc12 (stereo partly drawn) [4j, (2′R,3S,7a′S)-1′-(3-Bromophenyl)-2′-(1H-indole-3-carbonyl)-1′,2′,5′,6′,7′,7a′-hexahydrospiro[indoline-3,3′-pyrrolizin]-2-one]	9 ± 0.5	4.7	2.2	110 to 112	20	7 ± 0.2	3.7	–	8 ± 1	4.2	2.5	–	–	–	–	–	–	–
Cc1ccc(C2[C@@H](C(=O)c3c[nH]c4ccccc34)[C@]3(C(=O)Nc4ccccc43)N3CCC[C@@H]23)cc1 (stereo partly drawn) [4b, (2′R,3S,7a′S)-2′-(1H-Indole-3-carbonyl)-1′-(p-tolyl)-1′,2′,5′,6′,7′,7a′-hexahydrospiro[indoline-3,3′-pyrrolizin]-2-one]	21 ± 2	9.7	1.2	174 to 176	26	16.3 ± 2	7.5	1.6	11.8 ± 2	5.4	2.2	–	–	–	–	–	–	–
